Consider 27 molecules from patent US20250346575A1, “ISOINDOLINONE DERIVATIVE HAVING GLUTARIMIDE MOTHER NUCLEUS, AND USE THEREOF” (KOREA RESEARCH INSTITUTE OF CHEMICAL TECHNOLOGY, priority 2021, published 2025).

In the test the test system is Cancer cells (KG-1). Kind of test: Cytotoxicity assay, WST-1, KG-1. The format is cell-based. To be noted: for IC50: Homo sapiens, KG-1 cells, 72 hours, WST-1; for activity (in words): monocyclic heteroaryl R1 and aryl R2 compared to bicyclic heteroaryl R1 (Compounds 8, 9, and 26). The protocol:
To evaluate the effect of the compounds of the present disclosure on cancer cells, a cytotoxicity assay was conducted as follows.
Cancer cells (KG-1) were seeded at a concentration of 10,000 cells per well into a 96-well plate. Then, the cells were treated with predetermined concentrations of compounds of the Examples and comparative substances (comparative compounds 1, 2, 3). After 72 hours, the cells were incubated with WST-1 reagent for one hour. Then, absorbance was measured at 450 nm using a spectramax spectrophotometer to assess the degree of cancer cell apoptosis. The IC50 (μM) values were calculated using the measured values with the GraphPad Prism program and the measurements are summarized in Table 1.
In general terms: Tetrazolium dyes change colour on reduction, which living cells bring about.

`Cc1c(C(=O)NCc2ccc3c(c2)CN(C2CCC(=O)NC2=O)C3=O)n[nH]c1-c1ccccc1` (stereo not shown) [Compound 17, N-((2-(2,6-Dioxopiperidin-3-yl)-1-oxoisoindolin-5-yl)methyl)-4-methyl-5-phenyl-1H-pyrazole-3-carboxamide]: the concentration for half-maximal inhibition (IC50) (usually the concentration needed to halve the response being measured) lay within 0.0001 to 0.01 µM and the “activity (in words)” value is recorded as “significantly more potent activity”.

With `O=C1CCC(N2Cc3cc(CNC(=O)c4cc(-c5ccc(Cl)cc5)ccn4)ccc3C2=O)C(=O)N1` (stereo not shown) [Compound 18, 4-(4-chlorophenyl)-N-((2-(2,6-dioxopiperidin-3-yl)-1-oxoisoindolin-5-yl)methyl)picolinamide], the IC50 was 0.0001 to 0.01 µM.

`O=C1CCC(N2Cc3cc(CNC(=O)c4cc(-c5cccc(Cl)c5)on4)ccc3C2=O)C(=O)N1` (stereo not shown) [Compound 19, 5-(3-Chlorophenyl)-N-((2-(2,6-dioxopiperidin-3-yl)-1-oxoisoindolin-5-yl)methyl)isoxazole-3-carboxamide] displayed an IC50 of 0.0001 to 0.01 µM.

`O=C1CCC(N2Cc3cc(CNC(=O)c4ncc(-c5cccc(Cl)c5)cn4)ccc3C2=O)C(=O)N1` (stereo not shown) [Compound 20, 5-(3-Chlorophenyl)-N-((2-(2,6-dioxopiperidin-3-yl)-1-oxoisoindolin-5-yl)methyl)pyrimidine-2-carboxamide] displayed an IC50 of 0.0001 to 0.01 µM.

`Cc1c(C(=O)NCc2ccc3c(c2)CN(C2CCC(=O)NC2=O)C3=O)nn(Cc2ccccc2)c1-c1cccc(Cl)c1` (stereo not shown) [Compound 21, 1-Benzyl-5-(3-chlorophenyl)-N-((2-(2,6-dioxopiperidin-3-yl)-1-oxoisoindolin-5-yl)methyl)-4-methyl-1H-pyrazole-3-carboxamide] showed a 50% inhibitory concentration (IC50) of 0.0001 to 0.01 µM.

On to `Cn1nc(C(=O)NCc2ccc3c(c2)CN(C2CCC(=O)NC2=O)C3=O)cc1-c1ccccc1` (stereo not shown) [Compound 23, N-((2-(2,6-Dioxopiperidin-3-yl)-1-oxoisoindolin-5-yl)methyl)-1-methyl-5-phenyl-1H-pyrazole-3-carboxamide], for which the half-maximal inhibitory concentration (IC50) lay in the range of 0.0001 to 0.01 µM and the “activity (in words)” value is on record as “significantly more potent activity”.

`O=C1CCC(N2Cc3cc(CNC(=O)c4cc(-c5ccc(Cl)cc5Cl)[nH]n4)ccc3C2=O)C(=O)N1` (stereo not shown) [Compound 25, 5-(2,4-Dichlorophenyl)-N-((2-(2,6-dioxopiperidin-3-yl)-1-oxoisoindolin-5-yl)methyl)-1H-pyrazole-3-carboxamide] yielded an IC50 of 0.0001 to 0.01 µM.

As to `O=C1CCC(N2Cc3cc(CNC(=O)c4nc5ccc(Cl)cc5s4)ccc3C2=O)C(=O)N1` (stereo not shown) [Compound 26, 6-Chloro-N-((2-(2,6-dioxopiperidin-3-yl)-1-oxoisoindolin-5-yl)methyl)benzo[d]thiazole-2-carboxamide], the IC50 was in the range of 0.01 to 1 µM.

Consider `O=C1CCC(N2Cc3cc(CNC(=O)c4n[nH]c(-c5cccc(Cl)c5)c4Br)ccc3C2=O)C(=O)N1` (stereo not shown) [Compound 27, 4-Bromo-3-(3-chlorophenyl)-N-((2-(2,6-dioxopiperidin-3-yl)-1-oxoisoindolin-5-yl)methyl)-1H-pyrazole-5-carboxamide], for which the concentration for half-maximal inhibition (IC50) lay within 0.0001 to 0.01 µM.

The molecule `O=C1CCC(N2Cc3cc(CNC(=O)c4cc(-c5cc(Cl)ccc5Cl)[nH]n4)ccc3C2=O)C(=O)N1` (stereo not shown) [Compound 28, 5-(2,5-Dichlorophenyl)-N-((2-(2,6-dioxopiperidin-3-yl)-1-oxoisoindolin-5-yl)methyl)-1H-pyrazole-3-carboxamide] registered an IC50 of 0.0001 to 0.01 µM.

As for `Cc1ccc(-c2cc(C(=O)NCc3ccc4c(c3)CN(C3CCC(=O)NC3=O)C4=O)n[nH]2)c(C)c1` (stereo not shown) [Compound 29, 5-(2,4-Dimethylphenyl)-N-((2-(2,6-dioxopiperidin-3-yl)-1-oxoisoindolin-5-yl)methyl)-1H-pyrazole-3-carboxamide], the IC50 was 0.0001 to 0.01 µM.

Turning to `O=C1CCC(N2Cc3cc(CNC(=O)c4cccc(-c5ccccc5)c4)ccc3C2=O)C(=O)N1` (stereo not shown) [Compound 30, N-((2-(2,6-Dioxopiperidin-3-yl)-1-oxoisoindolin-5-yl)methyl)-[1,1′-biphenyl]-3-carboxamide], the IC50 fell in the range of 10 to 50 µM.

`Cc1ccnc(C(=O)NCc2ccc3c(c2)CN(C2CCC(=O)NC2=O)C3=O)c1` (stereo not shown) [Compound 31, N-((2-(2,6-Dioxopiperidin-3-yl)-1-oxoisoindolin-5-yl)methyl)-4-methylpicolinamide]: the concentration for half-maximal inhibition (IC50) was 10 to 50 µM.

`O=C1CCC(N2Cc3cc(CNC(=O)c4n[nH]c5ccccc45)ccc3C2=O)C(=O)N1` (stereo not shown) [Compound 34, N-((2-(2,6-Dioxopiperidin-3-yl)-1-oxoisoindolin-5-yl)methyl)-1H-indazole-3-carboxamide] displayed an IC50 of 0.01 to 1 µM.

In the case of `Cn1cc(Br)cc1C(=O)NCc1ccc2c(c1)CN(C1CCC(=O)NC1=O)C2=O` (stereo not shown) [Compound 38, 4-Bromo-N-((2-(2,6-dioxopiperidin-3-yl)-1-oxoisoindolin-5-yl)methyl)-1-methyl-1H-pyrrole-2-carboxamide], the half-maximal inhibitory concentration (IC50) was in the range of 1 to 10 µM.

Turning to `Cn1cc(-c2ccccc2)cc1C(=O)NCc1ccc2c(c1)CN(C1CCC(=O)NC1=O)C2=O` (stereo not shown) [Compound 39, N-((2-(2,6-Dioxopiperidin-3-yl)-1-oxoisoindolin-5-yl)methyl)-1-methyl-4-phenyl-1H-pyrrole-2-carboxamide], the half-inhibitory concentration (IC50) was 0.0001 to 0.01 µM and the “activity (in words)” value was “significantly more potent activity”.

Consider `Cn1cc(-c2cccc(Cl)c2)cc1C(=O)NCc1ccc2c(c1)CN(C1CCC(=O)NC1=O)C2=O` (stereo not shown) [Compound 40, 4-(3-Chlorophenyl)-N-((2-(2,6-dioxopiperidin-3-yl)-1-oxoisoindolin-5-yl)methyl)-1-methyl-1H-pyrrole-2-carboxamide], for which the IC50 lay within 0.0001 to 0.01 µM and the “activity (in words)” value is given as “significantly more potent activity”.

`Cc1c(C(=O)NCc2ccc3c(c2)CN(C2CCC(=O)NC2=O)C3=O)nn(CC(C)C)c1-c1cccc(Cl)c1` (stereo not shown) [Compound 41, 5-(3-Chlorophenyl)-N-((2-(2,6-dioxopiperidin-3-yl)-1-oxoisoindolin-5-yl)methyl)-1-isobutyl-4-methyl-1H-pyrazole-3-carboxamide]: the IC50 lay in the range of 0.0001 to 0.01 µM.

Molecule `Cc1c(C(=O)NCc2ccc3c(c2)CN(C2CCC(=O)NC2=O)C3=O)nn(-c2ccccc2)c1-c1cccc(Cl)c1` (stereo not shown) [Compound 42, 5-(3-chlorophenyl)-N-((2-(2,6-dioxopiperidin-3-yl)-1-oxoisoindolin-5-yl)methyl)-4-methyl-1-phenyl-1H-pyrazole-3-carboxamide] displayed a half-inhibitory concentration (IC50) of 0.0001 to 0.01 µM.

In the case of `Cc1c(C(=O)NCc2ccc3c(c2)CN(C2CCC(=O)NC2=O)C3=O)nn(Cc2ccc(F)cc2)c1-c1cccc(Cl)c1` (stereo not shown) [Compound 43], the IC50 is 0.0001 to 0.01 µM.

Molecule `O=C1CCC(N2Cc3cc(CNC(=O)c4nc5cc(Cl)ccc5s4)ccc3C2=O)C(=O)N1` (stereo not shown) [Compound 44, 5-chloro-N-((2-(2,6-dioxopiperidin-3-yl)-1-oxoisoindolin-5-yl)methyl)benzo[d]thiazole-2-carboxamide] came in with an IC50 of 0.01 to 1 µM.

In turn, `Cc1cnc(C(=O)NCc2ccc3c(c2)CN(C2CCC(=O)NC2=O)C3=O)cc1-c1ccccc1` (stereo not shown) [Compound 45, N-((2-(2,6-Dioxopiperidin-3-yl)-1-oxoisoindolin-5-yl)methyl)-5-methyl-4-phenylpicolinamide] registered an IC50 of 0.0001 to 0.01 µM.

For the molecule `O=C1CCC(N2Cc3cc(CNC(=O)c4cc(-c5ccccc5)c(Cl)cn4)ccc3C2=O)C(=O)N1` (stereo not shown) [Compound 46, 5-Chloro-N-((2-(2,6-dioxopiperidin-3-yl)-1-oxoisoindolin-5-yl)methyl)-4-phenylpicolinamide], the concentration for half-maximal inhibition (IC50) was in the range of 0.0001 to 0.01 µM.

Molecule `O=C1CCC(N2Cc3cc(CNC(=O)c4ccccc4-c4ccccc4)ccc3C2=O)C(=O)N1` (stereo not shown) [Compound 52, N-((2-(2,6-Dioxopiperidin-3-yl)-1-oxoisoindolin-5-yl)methyl)-[1,1′-biphenyl]-2-carboxamide] had an IC50 of 10 to 50 µM.

On to `O=C1CCC(N2Cc3cc(CNC(=O)C4(c5ccc(Cl)cc5)CCCC4)ccc3C2=O)C(=O)N1` (stereo not shown) [Compound 53, 1-(4-Chlorophenyl)-N-((2-(2,6-dioxopiperidin-3-yl)-1-oxoisoindolin-5-yl)methyl)cyclopentane-1-carboxamide], for which the IC50 was in the range of 10 to 50 µM.

Molecule `O=C1CCC(N2Cc3cc(CNC(=O)C4(c5ccccc5)CCCC4)ccc3C2=O)C(=O)N1` (stereo not shown) [Compound 54, N-((2-(2,6-Dioxopiperidin-3-yl)-1-oxoisoindolin-5-yl)methyl)-1-phenylcyclopentane-1-carboxamide] showed a half-maximal inhibitory concentration (IC50) of 10 to 50 µM.

On to `O=C1CCC(N2Cc3cc(CNC(=O)C4CCN(c5ccccc5)C4=O)ccc3C2=O)C(=O)N1` (stereo not shown) [Compound 55, N-((2-(2,6-Dioxopiperidin-3-yl)-1-oxoisoindolin-5-yl)methyl)-2-oxo-1-phenylpyrrolidine-3-carboxamide], for which the 50% inhibitory concentration (IC50) is 1 to 10 µM.
